# Source: patent US20130310352A1, “DEXAMETHASONE COMBINATION THERAPY” (priority 2010, published 2013)
# Experiments:
# [1] = system: CD138+ primary MM cells; experiment: Apoptosis of primary MM cells cocultured with BMSCs ex vivo; type: cell-based, human; settings: 10 μM, 24 hours, cocultured 1:1 with BMSCs
# Method: (§1) MM cell lines ARP1, ARK, MM.1S, MM.1R and U266 were maintained in RPMI-1640 medium supplemented with 10% fetal bovine serum, 100 U/ml penicillin and 100 μg/ml streptomycin at 37° C. and 5% CO2 Primary MM cells and MM BMSCs were isolated from bone marrow aspirates of myeloma patients. PBMCs were obtained from healthy volunteers. The study was approved by the Institutional Review Board at The University of Texas M.D. Anderson Cancer Center. Anti-caspase-3, caspase-9, PARP, Bim, XIAP, cyclin D1, pp 70S6K (Thr389) and p27(Kip1) antibodies were purchased from Cell Signaling. Anti-bcl-2, Bc1-XL, Akt, pAkt (Thr 308), pAkt (Ser 473), p70S6K and β-actin antibodies were purchased from Santa Cruz. Compound A was dissolved in DMSO at 10 mM as stock solution. Dexamethasone and Propidium iodide (PI) were purchased from Sigma-Aldrich. Recombinant human IL6 was purchased from R&D Systems. FITC conjugated Annexin V was obtained from Invitrogen.
# Apoptotic cells were determined as Annexin V positive cells.
# To evaluate compound A function in primary MM cells, the study was extended to CD138+ primary MM cells freshly isolated from myeloma patients. […]
# (A). […] Compound A induced MM cell apoptosis were measured by Annexin V staining as described in Materials and Methods. […] Cell growths were assessed by MTS assay. […]
# [2] = system: ARK; experiment: MTS cell growth assay; type: cell-based; settings: Homo sapiens, 24 hours treatment, read-out: IC50 (concentration at 50% inhibition), cell growth
# Method: as §1
# (§2) All experiments were performed in triplicate.
# [3] = system: MM.1S; experiment: MTS cell growth assay; type: cell-based; settings: Homo sapiens, MM1.S, 24 hours treatment, read-out: IC50 (concentration at 50% inhibition), cell growth
# Method: as §1, §2
# [4] = system: ARP1; experiment: MTS cell growth assay; type: cell-based; settings: Homo sapiens, ARP-1, ARP1, 24 hours treatment, read-out: IC50 (concentration at 50% inhibition), cell growth
# Method: as §1, §2
# [5] = system: MM cells ARP1, MM.1S and MM.1R; experiment: Low-dose single agents, apoptosis; type: cell-based, human; settings: 1 μM compound A alone, 1 day
# Method: Compound A-induced cell apoptosis was detected by Annexin V binding assay as previously described (Zheng Y, Cai Z, Wang S, et al. Macrophages are an abundant component of myeloma microenvironment and protect myeloma cells from chemotherapy drug-induced apoptosis. Blood. 2009; 114 (17):3625-3628). Briefly, MM cells were cultured in 24-well plates and treated with 0 to 1 mM final concentrations of compound A for 24 or 72 hours. The cells were washed twice with cold PBS and resuspended in Annexin V binding buffer (Invitrogen). MM cells were stained with FITC-conjugated Annexin V and propidium iodide (PI) for 15 min at room temperature. Apoptotic cells were determined as Annexin V positive cells.
# Next, the experiment was extended to other MM cell lines, and they were treated with low compound A (1 μM) and dexamethasone (40 μg/ml).
# ARP1 cells were treated with 10 μM compound A (BK), 15 nM melphalan (Me), 40 μg/ml dexamethasone (De), 100 μM lenalidomide (Le), 10 μM Bortizomib (BT), or their combinations for 1 day. The cell apoptosis were measured as described. […] Cell apoptosis was measured. […] Same MM cell lines were treated with compound A for 1 day and cell growth were measured by MTS. […] Cell apoptosis were measured by annexin V staining. […] Cells apoptosis rates were measured by annxin V staining. […]
# [6] = system: PI3K-Akt-mTOR pathway in MM cells; experiment: Immunoblotting, PI3K-Akt-mTOR pathway; type: cell-based, human
# Method: as §1
# To further analyze the signaling pathways that were affected by compound A exposure in MM cells, immunoblotting was extended to other cell signaling molecules. First, the inhibitory effect of compound A on PI3K-Akt-mTOR pathway in MM cells was tested. […] This is probably because of increased apoptotic cells after compound A treatment. […] Such findings indicate that compound A inhibits PI3K-Akt-mTOR pathways in MM cells.
# (A). […] Compound A induced activation and cleavage of caspase-3, caspase-9 and PARP is shown. (B). Same MM cells treated with 10 μM compound A were lysed for western blotting. (C) RP1 cells were treated with 10 μM compound A for 1, 6, 12 and 24 hours.
compound,measurement,setting,value
"Nc1cc(C(F)(F)F)c(-c2cc(N3CCOCC3)nc(N3CCOCC3)n2)cn1 [compound A, 5-(2,6-di-morpholin-4-yl-pyrimidin-4-yl)-4-trifluoromethyl-pyridin-2-ylamine]",primary MM cells apoptosis,[1],more than 70%
same,IC50,[2],1000 to 10000 nM
same,IC50,[3],< 1000 nM
same,IC50,[4],1000 to 10000 nM
same,cytotoxic effect of low dose alone,[5],only limited cytotoxic effect
same,p-Akt at Ser473 and Thr308,[6]; 10 μM compound A,down-regulated
same,total Akt levels,"[6]; ARP1 and MM.1R cells, 10 μM",decreased
same,p-P70S6K levels,"[6]; tested MM cell lines, 10 μM",decreased
same,total P70S6K expression,"[6]; tested MM cell lines, 10 μM",remained constant
